Experimental findings from patent US20240317727A1 (Duke University, priority 2018, published 2024) are described below.

Data set [1] concerns the target T1, purified recombinant human HSF1 (HSF1 DNA binding domain) (Homo sapiens, UniProt Q00613).
T1 sequence (Q00613 15-120): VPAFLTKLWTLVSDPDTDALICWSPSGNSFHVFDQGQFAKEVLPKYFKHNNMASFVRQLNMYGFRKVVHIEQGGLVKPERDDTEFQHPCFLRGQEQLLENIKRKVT
Description: Melting temperature of HSF1 DBD with HSF1 degrader compounds (Sypro orange). To be noted: read-out: ΔTm (° C.). As to the method: The melting temperature (ΔTm) for purified recombinant human HSF1 (HSF1 DNA binding domain) was determined in the presence of HSF1 degrader compounds shown in Table 5 and compared to the solvent DMSO. Sypro orange dye was added to the HSF1 DBD (5 micromolar final concentration) in buffer, mixed and distributed to wells in 384 well microtiter plates. HSF1 degrader compound (12.5 micromolar) or DMSO solvent was added to three replicate wells per compound concentration, mixed and plates loaded into a Quant Studio thermnocycler and run on a temperature gradient from 25° C. to 85° C. with increments of 0.5° C. steps. Melting curves were obtained and analyzed using the ThermnoFisher Shift Software 1.4 fitted with a Boltzmann equation to determine the change in melting temperature of the protein in the presence of DMSO as compared to compound. The difference in the melting temperature under these two conditions was assigned as the change in melting temperature of ΔTm.

Data set [2] deals with C4-2 prostate cancer cells. The data set can be described thus: C4-2 cell proliferation, Cell Titre Glo. Type of data set: cell-based. The settings on record: Homo sapiens, 48-hour period, 9-point dilution series, read-out: Cell Viability IC50. The protocol: Next, cell viability of C4-2 prostate cancer cells was determined. C4-2 prostate cancer cells were grown in RMPI-1640 (no L-glutamine, Gibco 21870076) supplemented with 10% fetal bovine […] (non-heat-inactivated, Cytiva Hyclone SH30071.03). […] A 9-point dilution series was used to assess the ability of each compound to inhibit the growth of C4-2 prostate cancer cells over a 48-hour period, as compared to negative control solvent, DMSO. Cell proliferation was measured by the Cell Titre Glo assay using 384 well microtiter plate reader to quantitate luminescence. The IC50 was determined from the values obtained.

The subject of the next data set is DNAJB1 equals Hsp40. The data set can be described thus: HSF1 target gene transcript expression qPCR in C4-2 cells, Hsp40. Type of data set: cell-based. The settings on record: Homo sapiens, 2 hours then SNX-2112 (100 nM) 5 hr, vs GAPDH and DMSO. As to the method: (§1) Next, the change in heat shock protein gene expression in C4-2 prostate cancer cells was determined. C4-2 prostate cancer cells were grown in RMPI-1640 (no L-glutamine, Gibco 21870076) supplemented with 10% fetal bovine […] (non-heat-inactivated, Cytiva Hyclone SH30071.03). To quantitatively measure the inhibition of HSF1 activity in C4-2 prostate cancer cells, compounds or DMSO were added to triplicate C4-2 cell cultures for 2 hours. HSF1 activity was then stimulated with the Hsp90 inhibitor SNX-2112 (100 nM) for an additional 5 hr at 37° C. in the presence of HSF1 degrader compounds or DMSO. Total RNA was extracted, converted to cDNA and used in qPCR assays to quantify the change in HSF1 target gene transcript expression (HSPA4L equals Hsp70, HSPB1 equals Hsp27 and DNAJB1 equals Hsp40) as compared to GAPDH internal control gene, and then compared to DMSO negative control.

A further data set deals with Hsp70. The data set can be described thus: HSF1 target gene transcript expression qPCR in C4-2 cells, Hsp70. The class given is cell-based. The settings on record: Homo sapiens, 2 hours then SNX-2112 (100 nM) 5 hr, vs GAPDH and DMSO. The protocol:
as §1

The nature of data set [3]: Rat liver microsome stability. The class given is in vitro ADME. To be noted: rat liver microsomes, 37° C., read-out: Microsome Stability T1/2. The protocol: Next, the microsome stability in rats was determined for select compounds from Table 5. Test compounds are incubated with rat liver microsomes supplemented with co-factors at 37° C. Typical conditions were a compound concentration of 1 μM and 5 sampling time-points (0, 5, 15, 30 and 45 minutes), in duplicate. At each time-point, the reactions were terminated by the addition of organic solvent. The samples were centrifuged and the parent compound concentration was evaluated by LC-MS/MS measurements. Control compounds were included with well-established stability when incubated with rat microsomes. Multiple time points were used to determine % parent compound remaining at each time point and to calculate the Tiu2 for each compound in rat liver microsomes. A higher T1/2 indicates increased compound stability in microsomes.

Data set [4] has as its target T2, recombinant HSF1 DNA-binding domain (DBD) (Homo sapiens, UniProt Q00613).
T2 sequence (Q00613 15-120): T1 sequence (Q00613 15-120)
Description: Differential Scanning Fluorimetry (DSF), HSF1 DBD melting temperature. The settings on record: Table 3; 5 μM HSF1 DBD, 25PM Compound; positive = stabilizes, negative = destabilizes HSF1.

Where [5] appears, read: 12.5 micromolar compound, 5 micromolar HSF1 DBD, compared to DMSO.

The structures appear in SMILES notation. Like-named read-outs stand apart in the source and are kept apart here.

For `N#Cc1ccc(NC(=O)Nc2ccc3nsnc3c2)cc1` [Compound 245, 1-(benzo[c][1,2,5]thiadiazol-5-yl)-3-(4-cyanophenyl)urea], the ΔTm at 12.5 µM in data set [1] (setting [5]) turned out to be 2.74 °C. In data set [2], the IC50 is above 10 µM. The figures for the mrna remaining at 10 µM in the data set with DNAJB1 equals Hsp40 and in the data set with Hsp70 were 39% and 36%, respectively.

For `N#Cc1ccc(NC(=O)Nc2ccc(Cl)c(S(=O)(=O)C(F)(F)F)c2)cc1C(F)(F)F` [Compound 257, 1-(4-chloro-3-((trifluoromethyl)sulfonyl)phenyl)-3-(4-cyano-3-(trifluoromethyl)phenyl)urea], the ΔTm at 12.5 µM in data set [1] (setting [5]) is 1.62 °C. Besides, the IC50 in data set [2] turned out to be 2.15 µM. The mrna remaining at 10 µM turned out to be 7% in the data set on DNAJB1 equals Hsp40 and 20% in the data set on Hsp70. Besides, in data set [3], the half-life at 1 μM was 6.16 h.

As for `N#Cc1ccc(NC(=O)Nc2ccc(Cl)c(S(=O)(=O)C(F)(F)F)c2)cc1` [Compound 243, 1-(4-chloro-3-((trifluoromethyl)sulfonyl)phenyl)-3-(4-cyanophenyl)urea], the ΔTm at 12.5 µM in data set [1] (setting [5]) was 1.77 °C. Further, the IC50 in data set [2] was found to be 1.76 µM. The mrna remaining at 10 µM amounted to 39.5% in the data set with DNAJB1 equals Hsp40 and 38.5% in the data set on Hsp70. In data set [3], the half-life at 1 μM was found to be 2.56 h.

Consider `COc1cc(NC(=O)Nc2ccc(Cl)c(C(F)(F)F)c2)ccc1C#N` [Compound 247, 1-(4-chloro-3-(trifluoromethyl)phenyl)-3-(4-cyano-3-methoxyphenyl)urea], for which, in data set [1] (setting [5]), the ΔTm at 12.5 µM was determined as 2.8 °C. Moreover, the IC50 in data set [2] came out at 2.4 µM. Also, the mrna remaining at 10 µM amounted to 73% in the data set on DNAJB1 equals Hsp40 and 63% in the data set on Hsp70.

With `N#Cc1ccc(NC(=O)Nc2ccc3c(c2)S(=O)(=O)C=C3)cc1CN1CCOCC1` [Compound 291, 1-(4-cyano-3-(morpholinomethyl)phenyl)-3-(1,1-dioxidobenzo[b]thiophen-6-yl)urea], the ΔTm at 25 µM in data set [4] was -4.4 °C. Besides, in data set [1], the ΔTm at 12.5 µM was -0.44 °C. The IC50 in data set [2] was above 10 µM.

`CN(C)CCc1cc(C#N)ccc1NC(=O)Nc1ccc(Cl)c(S(=O)(=O)C(F)(F)F)c1` [Compound 296, 1-(4-chloro-3-((trifluoromethyl)sulfonyl)phenyl)-3-(4-cyano-2-(2-(dimethylamino)ethyl)phenyl)urea]: the ΔTm at 25 µM in data set [4] is -5.21 °C. Moreover, the ΔTm at 12.5 µM in data set [1] is 0.43 °C. Also, in data set [2], the IC50 was above 10 µM.

With `N#Cc1ccc(NC(=O)Nc2ccc(Cl)c(S(=O)(=O)C(F)(F)F)c2)c(OCCN2CCOCC2)c1` [Compound 299, 1-(4-chloro-3-((trifluoromethyl)sulfonyl)phenyl)-3-(4-cyano-2-(2-morpholinoethoxy)phenyl)urea], the ΔTm at 25 µM in data set [4] is 0.49 °C. The ΔTm at 12.5 µM in data set [1] (setting [5]) was 0.2 °C. The IC50 in data set [2] is above 10 µM.

Regarding `N#Cc1ccc(NC(=O)Nc2ccc3c(c2)S(=O)(=O)C=C3)nc1` [Compound 266, 1-(5-cyanopyridin-2-yl)-3-(1,1-dioxidobenzo[b]thiophen-6-yl)urea], in data set [1] (setting [5]), the ΔTm at 12.5 µM is -0.64 °C. The IC50 in data set [2] came to 0.81 µM. Also, the mrna remaining at 10 µM in the data set with DNAJB1 equals Hsp40 was 93%; in the data set with Hsp70, 83%.

As to `N#Cc1ccc(NC(=O)Nc2ccc(CN3CCOCC3)c(S(=O)(=O)C(F)(F)F)c2)cc1` [Compound 288, 1-(4-cyanophenyl)-3-(4-(morpholinomethyl)-3-((trifluoromethyl)sulfonyl)phenyl)urea], in data set [4], the ΔTm at 25 µM was determined as 3.27 °C. In data set [1], the ΔTm at 12.5 µM was 2.24 °C. Further, the IC50 in data set [2] was found to be 8.9 µM.

With `N#Cc1ccc(NC(=O)Nc2ccc(Cl)c(S(=O)(=O)C(F)(F)F)c2)cc1OCCN1CCOCC1` [Compound 293, 1-(4-chloro-3-((trifluoromethyl)sulfonyl)phenyl)-3-(4-cyano-3-(2-morpholinoethoxy)phenyl)urea], the ΔTm at 25 µM in data set [4] was -4.19 °C. In data set [1], the ΔTm at 12.5 µM turned out to be 1.13 °C. In data set [2], the IC50 worked out at 6.05 µM.

`N#Cc1ccc(NC(=O)Nc2ccc(OCCN3CCOCC3)c(S(=O)(=O)C(F)(F)F)c2)cc1` [Compound 294, 1-(4-cyanophenyl)-3-(4-(2-morpholinoethoxy)-3-((trifluoromethyl)sulfonyl)phenyl)urea]: the ΔTm at 25 µM in data set [4] was -9.02 °C. The ΔTm at 12.5 µM in data set [1] came out at 2.24 °C. In data set [2], the IC50 worked out at 9.82 µM.

Regarding `CN(C)CCc1cc(NC(=O)Nc2ccc3c(c2)S(=O)(=O)C=C3)ccc1C#N` [Compound 290, 1-(4-cyano-3-(2-(dimethylamino)ethyl)phenyl)-3-(1,1-dioxidobenzo[b]thiophen-6-yl)urea], the ΔTm at 25 µM in data set [4] was 3.28 °C. Further, in data set [1], the ΔTm at 12.5 µM is -0.3 °C. The IC50 in data set [2] was above 10 µM.

Take `O=C(Nc1ccc(F)cc1)Nc1ccc(Cl)c(S(=O)(=O)C(F)(F)F)c1` [Compound 54, 1-[4-chloro-3-(trifluoromethylsulfonyl)phenyl]-3-(4-fluorophenyl)urea]: the ΔTm at 12.5 µM in data set [1] (setting [5]) amounted to 2.1 °C. Besides, in data set [2], the IC50 came to 3.18 µM. In addition, the mrna remaining at 10 µM came to 37% in the data set on DNAJB1 equals Hsp40 and 23% in the data set on Hsp70.

For `N#Cc1ccc(NC(=O)Nc2ccc(Cl)c(S(=O)(=O)C(F)(F)F)c2)c(CN2CCOCC2)c1` [Compound 297, 1-(4-chloro-3-((trifluoromethyl)sulfonyl)phenyl)-3-(4-cyano-2-(morpholinomethyl)phenyl)urea], in data set [4], the ΔTm at 25 µM is 2.08 °C. Moreover, the ΔTm at 12.5 µM in data set [1] (setting [5]) was found to be 1.1 °C. Also, in data set [2], the IC50 was above 10 µM.

With `N#Cc1ccc(NC(=O)Nc2ccc3c(c2)S(=O)(=O)C=C3)cc1` [Compound 244, 1-(4-cyanophenyl)-3-(1,1-dioxidobenzo[b]thiophen-6-yl)urea], the ΔTm at 12.5 µM in data set [1] (setting [5]) was found to be 2.11 °C. Besides, the IC50 in data set [2] is 2.19 µM. For the same molecule, in data set [3], the half-life at 1 μM is 2.58 h.

As for `N#Cc1ccc(NC(=O)Nc2ccc(Cl)c(S(=O)(=O)C(F)(F)F)c2)cc1CN1CCOCC1` [Compound 285, 1-(4-chloro-3-((trifluoromethyl)sulfonyl)phenyl)-3-(4-cyano-3-(morpholinomethyl)phenyl)urea], the ΔTm at 25 µM in data set [4] is -7.52 °C. In addition, the ΔTm at 12.5 µM in data set [1] is 1.23 °C. The IC50 in data set [2] turned out to be 4.81 µM.

For `N#Cc1ccc(NC(=O)Nc2ccc3c(c2)S(=O)(=O)C=C3)cn1` [Compound 265, 1-(6-cyanopyridin-3-yl)-3-(1,1-dioxidobenzo[b]thiophen-6-yl)urea], the ΔTm at 12.5 µM in data set [1] (setting [5]) was determined as 0.84 °C. In addition, in data set [2], the IC50 worked out at 9.69 µM. For the same molecule, the mrna remaining at 10 µM worked out at 77% in the data set on DNAJB1 equals Hsp40 and 88% with Hsp70.

With `N#Cc1ccc(NC(=O)Nc2ccc3c(c2)S(=O)(=O)C=C3)cc1C(F)(F)F` [Compound 256, 1-(4-cyano-3-(trifluoromethyl)phenyl)-3-(1,1-dioxidobenzo[b]thiophen-6-yl)urea], in data set [1] (setting [5]), the ΔTm at 12.5 µM is 1.9 °C. Also, in data set [2], the IC50 was 3.47 µM. Besides, the half-life at 1 μM in data set [3] came out at 1.23 h.

In the case of `N#Cc1ccc(NC(=O)Nc2ccc(Cl)c(S(=O)(=O)C(F)(F)F)c2)cc1CCN1CCOCC1` [Compound 286, 1-(4-chloro-3-((trifluoromethyl)sulfonyl)phenyl)-3-(4-cyano-3-(2-morpholinoethyl)phenyl)urea], the ΔTm at 25 µM in data set [4] is -6.23 °C. In addition, the ΔTm at 12.5 µM in data set [1] came to 1.64 °C. The IC50 in data set [2] was found to be 5.95 µM.
